These results are taken from PMC8288134, “Synthesis, potential antitumor activity, cell cycle analysis, and multitarget mechanisms of novel hydrazones incorporating a 4-methylsulfonylbenzene scaffold: a molecular docking study” (Journal of Enzyme Inhibition and Medicinal Chemistry, 2021).

The subject of one data set is UACC-257. More on the design: method as in https://dtp.cancer.gov/dtpstandard/dwindex/index.jsp. As to conditions: reference drugs, ref https://dtp.cancer.gov/dtpstandard/dwindex/index.jsp; cited from earlier work.
The subject of the next data set is T-47D. More on the design: method as in https://dtp.cancer.gov/dtpstandard/dwindex/index.jsp. As to conditions: reference drugs, ref https://dtp.cancer.gov/dtpstandard/dwindex/index.jsp; cited from earlier work.
The test system of the next data set is HOP-62. The arrangement: method as in https://dtp.cancer.gov/dtpstandard/dwindex/index.jsp. As to conditions: reference drugs, ref https://dtp.cancer.gov/dtpstandard/dwindex/index.jsp; cited from earlier work.
A further data set concerns SF-268. More on the design: method as in https://dtp.cancer.gov/dtpstandard/dwindex/index.jsp. As to conditions: reference drugs, ref https://dtp.cancer.gov/dtpstandard/dwindex/index.jsp; cited from earlier work.
The subject of data set [1] is melanoma tumour cell lines. As to conditions: cited from earlier work; for GI50: read-out: GI50 (subpanel average), reference drugs, ref https://dtp.cancer.gov/dtpstandard/dwindex/index.jsp; for CC50: read-out: LC50 (subpanel average), reference drugs, ref https://dtp.cancer.gov/dtpstandard/dwindex/index.jsp; for TGI (subpanel average): reference drugs, ref https://dtp.cancer.gov/dtpstandard/dwindex/index.jsp.

The test system of another data set is NCI-H322M. The arrangement: method as in https://dtp.cancer.gov/dtpstandard/dwindex/index.jsp. The settings on record: reference drugs, ref https://dtp.cancer.gov/dtpstandard/dwindex/index.jsp; cited from earlier work.
The subject of the next data set is HS 578 T. The arrangement: method as in https://dtp.cancer.gov/dtpstandard/dwindex/index.jsp. The settings on record: reference drugs, ref https://dtp.cancer.gov/dtpstandard/dwindex/index.jsp; cited from earlier work.
The subject of another data set is ACHN. The arrangement: method as in https://dtp.cancer.gov/dtpstandard/dwindex/index.jsp. The settings on record: reference drugs, ref https://dtp.cancer.gov/dtpstandard/dwindex/index.jsp; cited from earlier work.
Data set [2] concerns full panel of 59 cancer cell lines. As to conditions: cited from earlier work; for GI50: read-out: GI50 MG-MID (full panel mean-graph midpoint), reference drugs, ref https://dtp.cancer.gov/dtpstandard/dwindex/index.jsp; for CC50: read-out: LC50 MG-MID (full panel mean-graph midpoint), reference drugs, ref https://dtp.cancer.gov/dtpstandard/dwindex/index.jsp; for TGI MG-MID (full panel mean-graph midpoint): reference drugs, ref https://dtp.cancer.gov/dtpstandard/dwindex/index.jsp.

Another data set has as its system SF-539. The arrangement: method as in https://dtp.cancer.gov/dtpstandard/dwindex/index.jsp. The settings on record: reference drugs, ref https://dtp.cancer.gov/dtpstandard/dwindex/index.jsp; cited from earlier work.
Another data set concerns HCT-15. The arrangement: method as in https://dtp.cancer.gov/dtpstandard/dwindex/index.jsp. The settings on record: reference drugs, ref https://dtp.cancer.gov/dtpstandard/dwindex/index.jsp; cited from earlier work.
The subject of data set [3] is HT29. The arrangement: method as in https://dtp.cancer.gov/dtpstandard/dwindex/index.jsp. As to conditions: reference drugs, ref https://dtp.cancer.gov/dtpstandard/dwindex/index.jsp; cited from earlier work.
The next data set deals with DU-145. The arrangement: method as in https://dtp.cancer.gov/dtpstandard/dwindex/index.jsp. As to conditions: reference drugs, ref https://dtp.cancer.gov/dtpstandard/dwindex/index.jsp; cited from earlier work.
For data set [4], the system named is renal cancer tumour cell lines. As to conditions: cited from earlier work; for GI50: read-out: GI50 (subpanel average), reference drugs, ref https://dtp.cancer.gov/dtpstandard/dwindex/index.jsp; for CC50: read-out: LC50 (subpanel average), reference drugs, ref https://dtp.cancer.gov/dtpstandard/dwindex/index.jsp; for TGI (subpanel average): reference drugs, ref https://dtp.cancer.gov/dtpstandard/dwindex/index.jsp.

The next data set deals with SF-295. The arrangement: method as in https://dtp.cancer.gov/dtpstandard/dwindex/index.jsp. The settings on record: reference drugs, ref https://dtp.cancer.gov/dtpstandard/dwindex/index.jsp; cited from earlier work.
The subject of another data set is IGROV1. The arrangement: method as in https://dtp.cancer.gov/dtpstandard/dwindex/index.jsp. As to conditions: reference drugs, ref https://dtp.cancer.gov/dtpstandard/dwindex/index.jsp; cited from earlier work.
A further data set relates to SNB-19. The data set is described as follows: NCI antitumor screen (SRB). It counts as cell-based. The settings on record: Homo sapiens, one dose 10 µM, read-out: Growth inhibition percentage (GI%).
The next data set concerns A549/ATCC. The data set is described as follows: NCI antitumor screen (SRB). It counts as cell-based. The settings on record: Homo sapiens, one dose 10 µM, read-out: Growth inhibition percentage (GI%).
A further data set concerns SK-MEL-2. Put plainly: NCI antitumor screen (SRB). Format: cell-based. As to conditions: Homo sapiens; SK-MEL-2; one dose 10 µM; read-out: Growth inhibition percentage (GI%).
For a further data set, the system named is PC-3. Put plainly: NCI antitumor screen (SRB). Format: cell-based. The settings on record: Homo sapiens, one dose 10 µM, read-out: Growth inhibition percentage (GI%).
In a further data set the test system is HCT-116. The data set is described as follows: NCI antitumor screen (SRB). The settings on record: Homo sapiens, read-out: Growth inhibition percentage (GI%). It counts as cell-based.
For a further data set, the system named is SR. The data set is described as follows: NCI antitumor screen (SRB). As to conditions: Homo sapiens, one dose 10 µM, read-out: Growth inhibition percentage (GI%). It counts as cell-based.
Another data set concerns CAKI-1. The data set is described as follows: NCI antitumor screen (SRB). It counts as cell-based. As to conditions: Homo sapiens, one dose 10 µM, read-out: Growth inhibition percentage (GI%).
Another data set has as its system MCF7. Put plainly: NCI antitumor screen (SRB). Format: cell-based. As to conditions: Homo sapiens, one dose 10 µM, read-out: Growth inhibition percentage (GI%).
The subject of the next data set is MDA-MB-435. Put plainly: NCI antitumor screen (SRB). Format: cell-based. As to conditions: Homo sapiens, one dose 10 µM, read-out: Growth inhibition percentage (GI%).
In a further data set the test system is TK-10. The data set is described as follows: NCI antitumor screen (SRB). As to conditions: Homo sapiens, one dose 10 µM, read-out: Growth inhibition percentage (GI%). It counts as cell-based.
In a further data set the test system is NCI-H226. The data set is described as follows: NCI antitumor screen (SRB). It counts as cell-based. As to conditions: Homo sapiens, one dose 10 µM, read-out: Growth inhibition percentage (GI%).
For the next data set, the system named is RXF 393. Put plainly: NCI antitumor screen (SRB). It counts as cell-based. As to conditions: Homo sapiens, one dose 10 µM, read-out: Growth inhibition percentage (GI%).
In data set [5] the test system is HT29. Put plainly: NCI antitumor screen (SRB). As to conditions: Homo sapiens, HT-29, one dose 10 µM, read-out: Growth inhibition percentage (GI%). Format: cell-based.

Regarding `Cc1ccc(-c2cc(C(F)(F)F)nn2-c2ccc(S(N)(=O)=O)cc2)cc1` [Celecoxib, celecoxib], the GI50 with UACC-257 is 19.9 µM; in the data set on T-47D it was 15.8 µM; with HOP-62, 63.1 µM; in the data set on SF-268, 15.8 µM; in data set [1], 22.5 µM; in the data set with NCI-H322M it was 19.9 µM. The GI50 was 19.9 µM with HS 578 T; 15.8 µM in the data set on ACHN; 17.5 µM in data set [2]; 19.9 µM in the data set with SF-539; 15.8 µM in the data set with HCT-15; 15.8 µM with HT29 [3]. For the same molecule, the GI50 in the data set with DU-145 was 15.8 µM; in data set [4], 19.9 µM; in the data set on SF-295, 15.8 µM; in the data set on IGROV1 it was 15.8 µM. The CC50 in data set [1] is 64.3 µM; in data set [2] it was 63.3 µM; in [4] it was 61.2 µM. Moreover, the “TGI (subpanel average)” value in data set [1] is 38.49 µM; in data set [4] it was 41.19 µM. Moreover, in [2], the “TGI MG-MID (full panel mean-graph midpoint)” value (shortened to “TGI MG-MID”) is reported as 34.0 µM.

The term inhibition denotes the percentage by which the read-out fell short of the control. Take `O=c1[nH]cc(F)c(=O)[nH]1` [Compound 5-Fu, 5-fluorouracil, reference compound]: the inhibition at 10 µM is 34.1% with SNB-19; 65.8% with A549/ATCC; under 10% in the data set on SK-MEL-2; 41.8% with PC-3; 82.2% in the data set on HCT-116; 75.2% in the data set on SR. The inhibition at 10 µM in the data set with CAKI-1 was determined as 60.6%; in the data set on MCF7, 88.5%; with MDA-MB-435, 63.4%; in the data set on TK-10, 33.1%; in the data set on NCI-H226, 30.5%; with RXF 393, 65.7%. Besides, the inhibition at 10 µM in the data set with HT29 [5] is 72.9%. Moreover, the figures for the GI50 in data set [1], in data set [2] and in data set [4] were 7.83 µM, 0.9 µM and 0.93 µM, respectively. The CC50 in data set [1] is 95.4 µM; in [2], 95.6 µM; in [4], over 100 µM. Further, the “TGI (subpanel average)” value was 61.57 µM in [1] and 46.25 µM in [4]. The “TGI MG-MID” value in data set [2] is 43.4 µM.

Turning to `C#Cc1cccc(Nc2ncnc3cc(OCCOC)c(OCCOC)cc23)c1` [Erlotinib, erlotinib], the GI50 was 100 µM in the data set on UACC-257; 3.98 µM in the data set with T-47D; 15.8 µM in the data set on HOP-62; 15.8 µM with SF-268; 23.7 µM in [1]; 0.1 µM in the data set with NCI-H322M. In addition, the GI50 in the data set with HS 578 T is 6.31 µM; in the data set on ACHN it was 0.199 µM; in data set [2] it was 7.68 µM; in the data set with SF-539 it was 19.9 µM; with HCT-15, 3.98 µM; with HT29 [3], 63.1 µM. The GI50 in the data set with DU-145 is 1.99 µM; in [4], 2.46 µM; in the data set with SF-295, 15.8 µM; in the data set on IGROV1, 0.316 µM. Besides, the CC50 in data set [1] is 93.3 µM; in [2] it was 95.6 µM; in [4], 89.2 µM. In addition, the results for the “TGI (subpanel average)” value in [1] and in [4] were 77.89 µM and 42.59 µM, respectively. Also, the “TGI MG-MID” value in data set [2] was 66.3 µM.

As to `COc1cc2ncnc(Nc3ccc(F)c(Cl)c3)c2cc1OCCCN1CCOCC1` [Gefitinib, gefitinib], the GI50 in the data set with UACC-257 was 2.51 µM; in the data set on T-47D, 7.94 µM; with HOP-62 it was 3.16 µM; in the data set on SF-268 it was 2.51 µM; in data set [1], 3.68 µM; in the data set with NCI-H322M it was 0.063 µM. The GI50 in the data set on HS 578 T was 7.94 µM; in the data set with ACHN, 0.158 µM; in data set [2] it was 2.1 µM; in the data set with SF-539, 10 µM; in the data set with HCT-15 it was 3.98 µM; in the data set on HT29 [3], 3.98 µM. The GI50 is 1.58 µM in the data set with DU-145, 1.41 µM in data set [4], 10 µM in the data set on SF-295 and 3.16 µM with IGROV1. For the same molecule, the “TGI (subpanel average)” value in data set [1] is reported as 12.49 µM; in [4], 12.50 µM. The “TGI MG-MID” value in data set [2] is 14.3 µM.

As to `CNC(=O)c1cc(Oc2ccc(NC(=O)Nc3ccc(Cl)c(C(F)(F)F)c3)cc2)ccn1` [Sorafenib, sorafenib], the GI50 in the data set on UACC-257 was 1.99 µM; in the data set on HOP-62, 1.99 µM; in the data set with SF-268 it was 2.51 µM; in data set [1], 1.87 µM; in the data set on NCI-H322M, 2.51 µM; with ACHN, 2.51 µM. The GI50 was 2.33 µM in [2]; 2.51 µM in the data set on HCT-15; 1.99 µM with HT29 [3]; 3.16 µM in the data set with DU-145; 2.86 µM in [4]; 2.51 µM in the data set with IGROV1. Besides, the CC50 was 28.6 µM in data set [1], 43.1 µM in data set [2] and 54.8 µM in [4]. For the same molecule, the “TGI (subpanel average)” value is 6.29 µM in [1] and 10.86 µM in data set [4]. Moreover, the “TGI MG-MID” value in [2] is listed as 9.11 µM.

With `CS(=O)(=O)c1ccc(C(=O)Nc2ccc(Cl)c(-c3ccccn3)c2)c(Cl)c1` [Vismodegib, vismodegib], the GI50 with UACC-257 was 50.1 µM; with T-47D it was 31.6 µM; in the data set with HOP-62, 79.4 µM; in the data set on SF-268, 39.8 µM; in the data set on NCI-H322M, 100 µM; in the data set on HS 578 T, 79.4 µM. Also, the GI50 was 39.8 µM in the data set with ACHN; 50.1 µM in the data set on SF-539; 31.6 µM in the data set on HCT-15; 25.1 µM with HT29 [3]; 50.1 µM in the data set with DU-145; 31.6 µM in the data set with SF-295. Also, the GI50 in the data set with IGROV1 was 100 µM.
